Target: T1, CDC42 BPB (MRCKB) (Homo sapiens, UniProt Q9Y5S2)
T1 construct: purchased Thermo Fisher Scientific (Life Technologies) SelectScreen
Test: SelectScreen Z'LYTE
Type: biochemical
Procedure, shortened: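 NU5455 was profiled across the SelectScreen Broad panel of kinase activity and binding assays. Z'LYTE reactions such as CSF1R ran at apparent Km ATP, while the Adapta CAMK1 assay used ATP listed as 10. Values are given as percent.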

T1 sequence (Q9Y5S2 whole entry): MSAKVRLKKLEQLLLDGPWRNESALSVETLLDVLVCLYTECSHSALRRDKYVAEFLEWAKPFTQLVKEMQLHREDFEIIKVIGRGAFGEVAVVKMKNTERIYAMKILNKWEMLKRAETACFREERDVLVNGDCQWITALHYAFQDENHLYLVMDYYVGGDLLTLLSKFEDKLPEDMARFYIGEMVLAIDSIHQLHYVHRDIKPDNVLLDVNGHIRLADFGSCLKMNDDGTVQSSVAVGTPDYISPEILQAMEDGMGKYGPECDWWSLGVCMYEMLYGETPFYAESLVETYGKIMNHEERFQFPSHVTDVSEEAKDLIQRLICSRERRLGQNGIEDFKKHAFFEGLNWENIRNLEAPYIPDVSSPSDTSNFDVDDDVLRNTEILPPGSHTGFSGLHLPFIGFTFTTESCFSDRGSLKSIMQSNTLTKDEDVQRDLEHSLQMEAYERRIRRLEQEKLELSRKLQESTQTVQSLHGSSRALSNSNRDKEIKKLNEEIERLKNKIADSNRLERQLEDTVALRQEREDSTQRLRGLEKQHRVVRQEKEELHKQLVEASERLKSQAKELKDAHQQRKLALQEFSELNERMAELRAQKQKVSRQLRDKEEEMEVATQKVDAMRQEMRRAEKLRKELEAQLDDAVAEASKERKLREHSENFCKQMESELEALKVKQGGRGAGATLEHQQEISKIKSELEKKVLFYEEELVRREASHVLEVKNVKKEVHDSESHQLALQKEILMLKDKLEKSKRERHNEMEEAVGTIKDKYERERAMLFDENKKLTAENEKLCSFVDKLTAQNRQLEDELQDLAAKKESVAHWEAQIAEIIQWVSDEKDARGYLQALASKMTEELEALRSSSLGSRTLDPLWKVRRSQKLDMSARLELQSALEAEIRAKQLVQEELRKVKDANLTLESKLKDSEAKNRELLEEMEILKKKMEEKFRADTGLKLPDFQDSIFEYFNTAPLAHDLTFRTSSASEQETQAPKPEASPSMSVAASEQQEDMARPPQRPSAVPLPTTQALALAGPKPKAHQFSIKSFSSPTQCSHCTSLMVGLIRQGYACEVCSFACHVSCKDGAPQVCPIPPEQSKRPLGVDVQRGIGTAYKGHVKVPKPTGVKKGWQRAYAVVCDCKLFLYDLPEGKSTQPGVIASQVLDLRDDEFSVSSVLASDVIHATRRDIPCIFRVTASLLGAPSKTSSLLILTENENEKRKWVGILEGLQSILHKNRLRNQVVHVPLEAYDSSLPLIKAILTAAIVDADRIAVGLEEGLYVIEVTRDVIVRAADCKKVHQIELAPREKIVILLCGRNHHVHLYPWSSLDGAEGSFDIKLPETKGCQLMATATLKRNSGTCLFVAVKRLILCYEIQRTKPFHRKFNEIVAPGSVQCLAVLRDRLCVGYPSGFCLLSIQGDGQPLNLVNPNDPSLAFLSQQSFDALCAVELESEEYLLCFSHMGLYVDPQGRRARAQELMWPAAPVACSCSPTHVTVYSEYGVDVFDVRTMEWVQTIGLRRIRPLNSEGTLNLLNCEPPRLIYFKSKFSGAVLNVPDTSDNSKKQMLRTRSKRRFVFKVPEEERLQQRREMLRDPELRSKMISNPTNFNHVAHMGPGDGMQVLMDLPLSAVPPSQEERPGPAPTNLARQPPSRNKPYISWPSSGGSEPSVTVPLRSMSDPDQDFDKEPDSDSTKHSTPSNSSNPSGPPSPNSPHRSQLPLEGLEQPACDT

`CN(C(=O)CN1CCOCC1)c1ccc2sc3c(-c4cccc5c(=O)cc(N6CC7CCC(C6)O7)oc45)cccc3c2c1` [NU5455] was tested. Which inhibition at 1 µM did it give?
The inhibition at 1 µM was -2.5%.
